# Source: patent publication US7767240B2, “Microbiological control in poultry processing” (priority 2001, dated 2010)
# Experiments:
# [1] = system: Escherichia coli field strain; assay: Chill water bacteria reduction (Example 2); type: cell-based
# Description: The trial events and experimental design used were as follows: • a) For all treatments a total of 190 birds were processed in a normal fashion. Each treatment involved use of 10 birds. • b) A warm (100° F.) bath was prepared containing 5×10^4 DelMarVa (Delaware-Maryland farm area) field Escherichia coli stain bacteria per mL. At least 200 mL of total bath fluid was provided for each bird. • c) All birds (both controls and treated) were randomly immersed into the warm bath. Both the inside and outside carcass areas were immersed to assure complete coverage. • d) Each separate chill tank water solution (normal tap water adjusted pH to 8.5, ice added to produce temperatures of <45° F.) contained 2×10^3 per mL bacteria. • e) The chill tank water solutions (at least 750 mL each) were be prepared for each disinfecting treatment, and birds were immersed for a period of 1.5 hours. • f) Each 10 minutes during the 1.5 hour chilling period, the birds were completely lifted out of solution and then reimersed in the solution. After the 1.5 hour chilling period, the birds were taken from the chill water and drained for 30 seconds, then promptly (within 5 minutes) placed into a sterile whole bird stomacher bag containing 400 mL diluent (Butterfield's Phosphate Diluent) bacteria collection. • g) Diluent (400 mL) was added to each carcass contained in a sterile stomacher bag while making sure to pour the diluent into the inside of the abdominal cavity. The carcass was rinsed inside and out with a rocking motion for one minute (ca. 35 RPM). […] After the fluids had been diluted, 0.1 mL of fluid was be placed on a MacConkey agar plate and bacteria counts determined. In cases where the goal of a 25-250 count on the plate was not achieved, another dilution and replating were conducted. • j) After all carcasses for each treatment had been dipped, water sample bacteria were determined. • k) Total bacteria per bird were calculated. […]
# [2] = system: total bacteria (S. sonnei, L. monocytogenes, E. coli, S. enteritidis, P. aeruginosa, C. jejuni); assay: Total bacteria reduction from control over 20-day storage (Example 4); type: cell-based; details: pH 8
# Description: A study was conducted to determine the effect of Clorox® bleach, and 1,3-dibromo-5,5-dimethylhydantoin (DBDMH) on carcass bacteria residual after 1.5 hour in a chill tank solution and spoilage 20-day shelf life longevity (caused by bacteria contamination). Tests were conducted at pH 8 (adjusted by trisodium phosphate). Skin pigmentation (Minolta Color Meter L value or Lightness, a value or redness and b value or yellowness) were determined before and post-processing.
# In general the study involved normal processing of 56-day-old birds, immersing carcasses first in a warm bath containing 10^4 per mL Escherichia coli, 10^4 per mL Salmonella enteritidis, 10^4 per mL Pseudomonas aeruginosa, 10^4 per mL Campylobacter jejuni, and 10^4 per mL spoilage bacteria each from […] strains (Listeria monocytogenes and Shigella sonnei). Carcass were then immersed in a chill tank “soup”, containing normal organic fluids (blood, fat, skin, and meat particles) and containing various disinfectants (termed test materials).
# A DBDMH stock solution and test solutions, a bacteria stock solution, and a “chicken soup” were prepared as in Example 3. In addition, the bacterial broth treatments, the whole bird wash sampling procedure, and the methodologies used for quantitative or qualitative determinations for bacterial organisms were conducted as in Example 3.
# In greater detail the trial events and experimental design used in this group of tests were as follows: • a) Test microorganisms used were: • Escherichia coli ATCC 11229 • Pseudomonas aeruginosa ATCC 15442 • Salmonella enteritidis ATCC 13076 • Shigella sonnei ATCC 9290 • Listeria monocytogenes ATCC 7644 • Campylobacter jejuni ATCC 29428 • b) Test Procedure: All test strains were grown individually at 35° C. for 24 hours in the media specified in Table 12. Cells were harvested by centrifugation at 10,000×g for 10 minutes and washed twice with Butterfield's Phosphate Buffer (BPB of pH 7.2). Cells were resuspended in BPB to obtain a cell suspension of approximately 1.0×10^8 CFU/mL for each microorganism. The target inoculum levels were approximately 10^6 CFU/mL in the final test solutions. In the cases of S. enteritidis and P. aeruginosa the species were washed by pouring into prepared sterile centrifuge tubes with cheesecloth filters. The culture was then pelleted and washed using above techniques and repeated 3 times. • c) The birds (56 days old) were processed under normal commercial conditions. • d) The bacteria were added to a large batch of the “chicken soup”, and then aliquots of the resultant mixture were distributed equally among the chill waters used for each test. Then the particular disinfectant composition under test was added to one of the chill waters. […]
smiles,measurement,setting,value
"CC1(C)C(=O)N(Br)C(=O)N1Br [DBDMH, 1,3-dibromo-5,5-dimethylhydantoin]",Mean Chill Water Bacteria Reduction (%),[1]; 50 ppm Cl2 (equivalent),99.9999%
same,Mean Chill Water Bacteria Reduction (%),[1]; 100 ppm Cl2 (equivalent),99.9999%
same,Mean Chill Water Bacteria Reduction (%),[1]; 150 ppm Cl2 (equivalent),99.9999%
same,Percentage of Total Bacteria Reduction From Control (Mean % Reduction From Control),"[2]; Day 0 post-processing, 10 ppm",77.8%
same,Percentage of Total Bacteria Reduction From Control (Mean % Reduction From Control),"[2]; Day 0 post-processing, 20 ppm",99.5%
same,Percentage of Total Bacteria Reduction From Control (Mean % Reduction From Control),"[2]; Day 2 post-processing, 10 ppm",77.3%
same,Percentage of Total Bacteria Reduction From Control (Mean % Reduction From Control),"[2]; Day 2 post-processing, 20 ppm",99.4%
same,Percentage of Total Bacteria Reduction From Control (Mean % Reduction From Control),"[2]; Day 4 post-processing, 10 ppm",76.8%
same,Percentage of Total Bacteria Reduction From Control (Mean % Reduction From Control),"[2]; Day 4 post-processing, 20 ppm",99.2%
same,Percentage of Total Bacteria Reduction From Control (Mean % Reduction From Control),"[2]; Day 6 post-processing, 10 ppm",77.1%
same,Percentage of Total Bacteria Reduction From Control (Mean % Reduction From Control),"[2]; Day 6 post-processing, 20 ppm",98.5%
same,Percentage of Total Bacteria Reduction From Control (Mean % Reduction From Control),"[2]; Day 8 post-processing, 10 ppm",74.6%
same,Percentage of Total Bacteria Reduction From Control (Mean % Reduction From Control),"[2]; Day 8 post-processing, 20 ppm",97.3%
same,Percentage of Total Bacteria Reduction From Control (Mean % Reduction From Control),"[2]; Day 10 post-processing, 10 ppm",71.9%
same,Percentage of Total Bacteria Reduction From Control (Mean % Reduction From Control),"[2]; Day 10 post-processing, 20 ppm",95.1%
same,Percentage of Total Bacteria Reduction From Control (Mean % Reduction From Control),"[2]; Day 12 post-processing, 10 ppm",69.2%
same,Percentage of Total Bacteria Reduction From Control (Mean % Reduction From Control),"[2]; Day 12 post-processing, 20 ppm",91.2%
same,Percentage of Total Bacteria Reduction From Control (Mean % Reduction From Control),"[2]; Day 14 post-processing, 10 ppm",66.2%
same,Percentage of Total Bacteria Reduction From Control (Mean % Reduction From Control),"[2]; Day 14 post-processing, 20 ppm",84.3%
same,Percentage of Total Bacteria Reduction From Control (Mean % Reduction From Control),"[2]; Day 16 post-processing, 10 ppm",61.9%
same,Percentage of Total Bacteria Reduction From Control (Mean % Reduction From Control),"[2]; Day 16 post-processing, 20 ppm",71.2%
same,Percentage of Total Bacteria Reduction From Control (Mean % Reduction From Control),"[2]; Day 18 post-processing, 10 ppm",58.5%
same,Percentage of Total Bacteria Reduction From Control (Mean % Reduction From Control),"[2]; Day 18 post-processing, 20 ppm",68.0%
same,Percentage of Total Bacteria Reduction From Control (Mean % Reduction From Control),"[2]; Day 20 post-processing, 10 ppm",53.7%
same,Percentage of Total Bacteria Reduction From Control (Mean % Reduction From Control),"[2]; Day 20 post-processing, 20 ppm",67.2%
